Measurements: patent US5846723A, “Methods for detecting the RNA component of telomerase” (Geron Corporation, priority 1996, dated 1998)

How the values were obtained:
telomerase [1] = test: Capture of active telomerase on streptavidin beads by biotinylated 2'OMe antisense analogs; type: binding, human; details: for capture of active telomerase on streptavidin beads: biotinylated 2'OMe analogs; for Capture? (2'OMe): biotinylated 2'OMe antisense RNA analog of the oligo, streptavidin beads; for Capture? (2'OMe) / Activity on beads: Table II; for Activity on beads: telomerase activity on beads after capture by 2'OMe analog
Source text: On the bases of the antisense data, biotinylated 2'OMe antisense RNA analogs were designed for affinity purification of telomerase. The goal of the antisense affinity approach was to design ligands that afforded good purification and yield, while keeping the enzyme intact (i.e., active). Several 2'OMe ligands met our criteria (Table II, FIG. 1). […] These analogs were further refined via the synthesis of second generation antisense affinity ligands, which were designed to allow release of active telomerase (reversible ligands). Currently, our affinity scheme consists of two reversible antisense ligands, which are employed in series, and target two different regions of hTR. The first ligand is a disulfide version of 14ab which allows release of telomerase via dithiothreitol treatment. The second ligand contains the 21ab1 antisense sequence and plus a tail of "nonsense" sequence. hTR is released from the antisense ligand by a displacement DNA oligonucleotide, which is complementary to the entire length of the 21ab1 antisense affinity ligand.

[2] = test system: hTR in the context of the native telomerase enzyme; test: RNase H cleavage of hTR directed by antisense DNA oligonucleotides in native telomerase; type: biochemical, human; details: for RNaseH Digestion?: antisense DNA oligo, cleavage of hTR in native RNP, Table II; for ability to direct RNase H cleavage of hTR: native telomerase enzyme
Source text: The regions were identified in two ways. The first way involved contacting samples containing human telomerase with a variety of DNA polynucleotides having sequences complementary to the sequence of hTR under hybridization conditions, contacting the telomerase with RNase H, which cleaves the RNA strand of an RNA-DNA duplex, and determining whether hTR had been cleaved. […] The second way involved oligo-decoration. […] Other accessible areas of hTR can be identified by similar assays using antisense polynucleotides whose sequences are substantially complementary to a nucleotide sequence selected from hTR.
A set of 17 contiguous antisense DNA oligonucleotides (30 mers) were tested for their ability to direct RNase H cleavage of hTR in the context of the native telomerase enzyme. […] Antisense oligonucleotides "14", "16", and "21" (see Table II) were tested as potential inhibitors of human telomerase ("hTase").
The accessible regions were "fine mapped" by using shorter antisense oligonucleotides to direct RNase H cleavage of hTR.

[3] = test system: human telomerase ("hTase"); test: Inhibition of human telomerase, standard primer elongation assay; type: biochemical; details: preincubation of partially purified nuclear or cytoplasmic extract with oligonucleotide
[4] = test system: telomerase ribonucleoprotein; test: Oligodecoration: native gel mobility shift with labeled 2'-O-methyl antisense polynucleotides; type: binding, human; details: radioactively labeled 2'-O-methyl antisense polynucleotide; altered mobility on native gel
Procedure: Oligodecoration was used to further identify accessible regions of the telomerase ribonucleoprotein. Radioactively labeled 2 0-methyl antisense polynucleotides were prepared and exposed to the telomerase ribonucleoprotein. The sample was incubated to allow the polynucleotide to bind to telomerase. Then the sample was run on a native gel. […] RP2 has the sequence CGG GCC AGC AGC TGA CA (SEQ ID NO:14).

telomerase [5] = test: Capture of telomerase on an affinity matrix; type: binding, human

| Substance | Capture? (2'OMe) (telomerase [1]) | RNaseH Digestion? [2] | ability to direct RNase H cleavage of hTR [2] | further results |
| --- | --- | --- | --- | --- |
| 5' GCT CTA G 3' [Oligo 21ab1] | yes | yes | – | capture of active telomerase on streptavidin beads (telomerase [1]): "captured" active telomerase; Activity on beads (telomerase [1]): yes |
| 5' GCT CTA GAA TGA ACG GTG G 3' (antisense GCTCTAGAATGAACGGTGG; chemistry not given here) [Oligo 21ab, shorter antisense oligo of the "21" region] | yes | yes | – | – |
| 5' GCT CTA GAA TGA ACG 3' (antisense GCTCTAGAATGAACG; chemistry not given here) [Oligo 21ab3, shorter antisense oligo of the "21" region] | – | yes | – | – |
| 5' CGTTCCTCTTCCTGCGGCCTGAAACGGTGA 3' (antisense CGTTCCTCTTCCTGCGGCCTGAAACGGTGA; chemistry not given here) [Oligo 14, antisense DNA 30 mer against hTR nucleotides 350-380] | – | yes | directed efficient cleavage of hTR | inhibition of hTase activity [3]: did not significantly affect hTase activity |
| 5' CTGACAGAGCCCAACTCTTCGCGGTGGCAG 3' (antisense CTGACAGAGCCCAACTCTTCGCGGTGGCAG; chemistry not given here) [Oligo 16, antisense DNA 30 mer against hTR nucleotides 290-319] | – | yes | directed efficient cleavage of hTR | inhibition of hTase activity [3]: did not significantly affect hTase activity |
| 5' GCTCTAGAATGAACGGTGGAAGGCGGCAGG 3' (antisense GCTCTAGAATGAACGGTGGAAGGCGGCAGG; chemistry not given here) [Oligo 21, antisense DNA 30 mer directed against nucleotides 137 to 166 of hTR] | – | yes | directed efficient cleavage of hTR | inhibition of hTase activity [3]: potent inhibition of hTase |
| 5' CTGACAGAGCCCAACTCTTC 3' (antisense CTGACAGAGCCCAACTCTTC; chemistry not given here) [Oligo 16ab, antisense 20 mer of the "16" region] | yes | yes | directed RNase H cleavage | Activity on beads (telomerase [1]): no |
| 5' CGT TCC TCT TCC 3' (antisense CGTTCCTCTTCC; biotinylated 2'OMe, further chemistry not given here) [Oligo 14d, antisense 12 mer of the "14" region; biotinylated 2'OMe analog used for capture] | yes | yes | directed RNase H cleavage | capture of active telomerase on streptavidin beads (telomerase [1]): "captured" active telomerase; Activity on beads (telomerase [1]): yes |
| 5' CATTTTTTGTTTGCTCTAGA 3' (antisense CATTTTTTGTTTGCTCTAGA; chemistry not given here) [20/21, antisense 20 mer] | – | yes | – | – |
| 5' GCT CTA GAA TG 3' (antisense GCTCTAGAATG; chemistry not given here) [Oligo 21ab2, shorter antisense oligo of the "21" region] | yes | yes | – | – |
| 5' CCTGCGGCCTGAAACGGTGA 3' (antisense CCTGCGGCCTGAAACGGTGA; chemistry not given here) [Oligo 14bc, antisense 20 mer of the "14" region] | – | no | – | – |
| 5' CCAACTCTTCGCGGTGGCAG 3' (antisense CCAACTCTTCGCGGTGGCAG; chemistry not given here) [Oligo 16bc, antisense 20 mer of the "16" region] | yes | yes | directed RNase H cleavage | – |
| 5' CGT TCC TCT TCC TGC G9C CT 3' [Oligo 14ab] | yes | yes | directed RNase H cleavage | capture of active telomerase on streptavidin beads (telomerase [1]): "captured" active telomerase; Activity on beads (telomerase [1]): yes |
| CGG GCC AGC AGC TGA CA (antisense CGGGCCAGCAGCTGACA; 2'-O-methyl, further chemistry not given here) [RP2] | – | – | – | binding to the telomerase ribonucleoprotein [4]: found to bind; ability to capture telomerase on an affinity matrix (telomerase [5]): demonstrated an ability to capture telomerase |
